Here are results for 1 compound from patent publication US20120270237A9, “METHODS FOR THE IDENTIFICATION OF KINASE INTERACTING MOLECULES AND FOR THE PURIFICATION OF KINASE PROTEINS” (Cellzone AG, priority 2009, published 2012).

Common to all, as to experiment: Kinobeads competition binding, HeLa Placenta lysate mix
Holding throughout (design): capturing and identification of kinases from mixed HeLa placenta lysates; endogenous in cells; host or cells: mixed lysate of HeLa cells and placenta tissue
Common to all, as to conditions: 10 μM free compound

Experiment [1] addresses T1, GAK (Homo sapiens, UniProt O14976).
T1 sequence (O14976 1-1311): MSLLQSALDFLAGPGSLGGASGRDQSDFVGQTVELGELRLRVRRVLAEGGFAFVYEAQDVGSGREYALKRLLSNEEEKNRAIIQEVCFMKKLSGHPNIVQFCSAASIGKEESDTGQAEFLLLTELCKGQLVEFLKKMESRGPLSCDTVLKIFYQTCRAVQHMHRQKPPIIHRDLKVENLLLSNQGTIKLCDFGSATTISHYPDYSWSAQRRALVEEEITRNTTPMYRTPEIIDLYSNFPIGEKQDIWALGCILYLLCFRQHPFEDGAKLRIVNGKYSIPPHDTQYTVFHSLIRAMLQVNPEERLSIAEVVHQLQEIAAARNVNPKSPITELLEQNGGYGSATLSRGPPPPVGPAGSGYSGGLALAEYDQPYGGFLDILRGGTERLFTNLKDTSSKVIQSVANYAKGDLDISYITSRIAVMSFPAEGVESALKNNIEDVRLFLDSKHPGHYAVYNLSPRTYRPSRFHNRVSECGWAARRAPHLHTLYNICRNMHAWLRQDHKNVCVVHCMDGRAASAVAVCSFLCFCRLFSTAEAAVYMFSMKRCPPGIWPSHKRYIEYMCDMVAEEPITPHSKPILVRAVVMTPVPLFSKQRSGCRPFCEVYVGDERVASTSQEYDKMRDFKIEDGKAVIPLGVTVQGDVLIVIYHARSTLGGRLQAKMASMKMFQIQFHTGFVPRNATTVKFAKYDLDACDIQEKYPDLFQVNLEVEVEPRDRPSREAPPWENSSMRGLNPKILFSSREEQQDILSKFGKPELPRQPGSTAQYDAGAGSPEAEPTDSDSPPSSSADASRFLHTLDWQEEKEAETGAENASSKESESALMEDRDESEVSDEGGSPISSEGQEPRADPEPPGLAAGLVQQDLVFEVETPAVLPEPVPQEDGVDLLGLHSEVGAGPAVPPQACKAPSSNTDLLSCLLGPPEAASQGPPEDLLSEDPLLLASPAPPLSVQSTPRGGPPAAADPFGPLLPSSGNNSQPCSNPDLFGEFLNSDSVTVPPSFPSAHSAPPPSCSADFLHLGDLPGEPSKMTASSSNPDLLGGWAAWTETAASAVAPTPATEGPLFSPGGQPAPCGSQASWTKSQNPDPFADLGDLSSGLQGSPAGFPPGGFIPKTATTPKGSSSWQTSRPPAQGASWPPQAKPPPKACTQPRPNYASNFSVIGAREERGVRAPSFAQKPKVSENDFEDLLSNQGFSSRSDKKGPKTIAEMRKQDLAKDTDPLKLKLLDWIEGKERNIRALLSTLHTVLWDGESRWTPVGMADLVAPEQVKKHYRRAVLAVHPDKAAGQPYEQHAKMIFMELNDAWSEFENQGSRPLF
The protocol:
(§1) To one aliquot of cell lysate 10 μM of the free compound (FIG. 3, CZC31326) was added and allowed to bind to proteins in the lysate. Then the affinity matrix with the immobilized compound was added to capture proteins that were not interacting with the previously added free compound. Beads were separated from the lysate and bead bound proteins were eluted in SDS sample buffer and subsequently separated by SDS-Polyacrylamide gel electrophoresis (FIG. 10). Suitable gel bands were cut out and subjected to in-gel proteolytic digestion with trypsin. The second lysate aliquot was processed identically, however no free compound was added (DMSO solvent control). Peptides originating from samples 1 and 2 were labeled with iTRAQ reagents (iTRAQ 114 and iTRAQ 117) and the combined samples were analyzed with a nano-flow liquid chromatography system coupled online to a tandem mass spectrometer (LC-MS/MS) experiment followed by iTRAQ reporter ion quantification in the MS/MS spectra as described in Example 2.

Experiment [2] addresses Erk2 (Homo sapiens, UniProt P28482). The method, then:
as §1

The target of experiment [3] is T2, GCK (Homo sapiens, UniProt Q12851).
T2 sequence (Q12851 1-820): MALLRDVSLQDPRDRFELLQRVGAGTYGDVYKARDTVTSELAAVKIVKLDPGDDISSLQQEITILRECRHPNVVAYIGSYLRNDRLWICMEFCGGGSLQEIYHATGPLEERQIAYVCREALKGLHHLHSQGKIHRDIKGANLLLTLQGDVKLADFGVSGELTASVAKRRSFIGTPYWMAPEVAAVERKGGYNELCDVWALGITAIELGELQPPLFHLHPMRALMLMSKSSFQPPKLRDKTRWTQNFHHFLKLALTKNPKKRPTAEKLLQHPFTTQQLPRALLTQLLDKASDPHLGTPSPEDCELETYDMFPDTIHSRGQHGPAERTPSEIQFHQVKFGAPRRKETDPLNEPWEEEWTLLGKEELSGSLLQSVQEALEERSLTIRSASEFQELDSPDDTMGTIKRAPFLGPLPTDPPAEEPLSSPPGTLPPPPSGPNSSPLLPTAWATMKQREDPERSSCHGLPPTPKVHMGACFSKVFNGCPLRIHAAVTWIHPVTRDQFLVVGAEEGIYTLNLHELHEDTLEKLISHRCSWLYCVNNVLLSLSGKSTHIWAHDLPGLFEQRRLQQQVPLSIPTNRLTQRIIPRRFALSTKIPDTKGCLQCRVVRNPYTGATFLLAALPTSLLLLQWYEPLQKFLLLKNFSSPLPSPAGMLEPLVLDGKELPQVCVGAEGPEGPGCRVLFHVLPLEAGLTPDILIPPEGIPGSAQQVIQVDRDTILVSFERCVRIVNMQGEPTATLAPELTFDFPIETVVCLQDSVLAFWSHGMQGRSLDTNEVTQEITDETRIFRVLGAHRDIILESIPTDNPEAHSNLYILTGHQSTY
The protocol:
as §1

Each structure is given as a SMILES string.

Sequence of Erk2 (P28482 whole entry): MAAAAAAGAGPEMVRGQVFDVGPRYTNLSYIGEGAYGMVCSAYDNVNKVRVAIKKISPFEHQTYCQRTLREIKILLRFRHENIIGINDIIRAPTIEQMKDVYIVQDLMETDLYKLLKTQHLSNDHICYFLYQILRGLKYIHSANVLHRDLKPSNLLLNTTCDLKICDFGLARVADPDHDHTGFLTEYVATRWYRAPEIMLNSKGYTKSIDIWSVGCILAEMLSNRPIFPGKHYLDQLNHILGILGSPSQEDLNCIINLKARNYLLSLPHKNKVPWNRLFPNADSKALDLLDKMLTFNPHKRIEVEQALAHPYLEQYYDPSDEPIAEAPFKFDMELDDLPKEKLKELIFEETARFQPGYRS

In general, inhibition refers to the relative decrease from the control value, in per cent. Low values mean a weak effect, high ones a strong effect. Turning to `CS(=O)(=O)Nc1ccccc1Nc1nc(Nc2cccc(OCCN)c2)ncc1Cl` [CZC31326, N-(2-(2-(3-(2-aminoethoxy)phenylamino)-5-chloropyrimidin-4-ylamino)phenyl)methanesulfonamide], the values for the inhibition at 10 µM in experiment [1], in experiment [2] and in experiment [3] were 93.6%, 68.5% and 93.8%, respectively.
